The values below come from patent US7863304B2, “Analogs of glycyl-prolyl-glutamate” (priority 2001, dated 2011).

For one data set, the system named is cortical cell culture. The data set is described as follows: Rat cortical dissociated cell culture, okadaic acid injury, MTT viability. Particulars: 100 nM okadaic acid. Here is the method: (§1) Embryonic E18/19 wistar rats were used for the generation of dissociated cortical cell cultures. The rear portion (occipital cortex-area 17/18 of the visual cortex) of the cortical plate is used for the generation of the cultures. Cells were grown for 3-10 DIV in one part of serum-free medium and one part of rat cortex-derived cultivated astrocytic-conditioned medium (ACM).
(§2) 96-well tissue culture plates were coated with 0.2 mg/ml poly-L-lysine followed by 2 μg/ml laminin. Subsequently 60 μl of ACM were added per well and plate was stored at 37° C. until plating of cortical cells.
(§3) Whole cortices of P1/2 wistar pups were collected into separate tubes containing 4 ml DMEM-1 cortex per tube. The tissues were triturated a few times with a 5 ml sterile pipette to break up them up into smaller pieces. Each tube was poured separately into a reagent reservoir and triturated once with a 5 ml syringe and 18 gauge drawing needle. The mixture was then filtered through a 100 μm cell strainer into a 50 ml centrifuge tube. The strainer was washed with 5 ml DMEM. The cell solution was extended with DMEM to 50 ml of volume. The solution was then centrifuged for 5mins at 350g at RT. The cells were resuspended in 40 ml of DMEM+10% FBS. The cells were then reconstituted into a 75 cm^2 cell flask and incubated at 37° C./10% CO2/100% humidity in […]. […] The medium was replaced after 1 day with fresh DMEM+10% FBS. The cell growth was monitored and media+FBS replaced twice weekly until the cells were confluent (˜10-14 days). Once the confluency reached, the cells were washed once with 20 ml sterile PBS. Cells were incubated for 3 days in 30 ml Neurobasal medium+B27 supplement to maintain cells under serum-free conditions. Cell supernatant was then filter through a 0.22 μm sterile filter and frozen in aliquots at −80° C.
(§4) The tissues were stored in PBS+glucose solution on ice until all dissection was completed. Tissue material was centrifuged at 350g for 5 mins at RT. The supernatant was removed and cell pellets were incubated in 5 ml trypsin/EDTA solution (Invitrogen) for 8 mins at 37° C. Proteolysis was stopped by addition of one part of DMEM+10% FBS. Subsequently, the tissued were centrifuged at 350g for 5 mins at RT. The pellet was collected, washed (centrifugation) twice in NB/B27 medium (Invitrogen) and resuspended in 1 ml NB/B27 medium. Tissue was transferred into a petri dish and triturated twice with a glass pasteur pipette attached to a pipette to break up large pieces of tissue. The tissue was then triturated twice using a 1 ml syringe and 22 gauge needle and passed through a 100 μm cell strainer to remove remaining large tissue pieces. The cells were washed with 1 ml NB/B27. The number of viable neurons was counted and the percentage of cell viability determined. […] The cortical cells were incubated at 37° C./10% CO2/100% humidity.
(§5) In order to induce neuronal injury the phosphatase 1/2A antagonist okadaic acid is added for 24 hrs. Simultaneously, an analog of GPE of this invention was administered. After 24 hrs metabolic activity was measured by addition of MTT for 2-4 hrs followed by addition of SDS-solution and photometric end point measurement at 595 nm.
(§6) Student's unpaired t-test is used for testing for statistical significance when comparing uninjured controls with the injured neuronal rescue agent containing conditions.

Another data set deals with striatal cells. The data set is described as follows: Striatal cell culture, 30 nM okadaic acid injury, MTT viability. It counts as cell-based, Wistar rats. Particulars: for neuroprotection against okadaic acid induced loss of cell viability: okadaic acid (30 nM), 24 h, MTT, striatal cell culture (FIGS. 3, 4, 6). An excerpt: (§7) Two pregnant Wistar rats (gestational day 18) underwent Caesarean section according to approved procedures from the Animal Ethics Committee of the University of Auckland. The Wistar dams were anaesthetised in a CO2-enriched atmosphere and sacrificed by subsequent spinal cord dislocation. The embryos were removed from their embryonic sacs and decapitated. After incisions into the skull with fine scissors, the embryonic brain was removed with a fine spatula. Striatal tissue was separated from neocortical tissue under the microscope and placed into serum-free DMEM/F-12 medium supplemented with penicillin/streptomycin (100 u/mL). Tissue underwent 15 trituration steps using a P1000 pipettor to obtain dissociated cells, which were centrifuged for 5 min at 250 G (4° C.) and the supernatant was discarded. Cells were re-suspended into 1 mL DMEM/F-12 medium and were kept on ice. Cell suspension (400,000 cells/cm2) was applied to 0.1 mg/mL poly-L-lysine pre-coated 96-well plates (3 h at 37° C.) and the volume was increased up to 100 μL with DMEM/F-12+5% FBS. Cells were cultivated at 37° C. in 100% humidity in a 5% CO2 atmosphere. After 24 h the medium was changed to serum-free Neurobasal/B27. Cell medium was changed every 3 days and maintained until 8 days in vitro (DWV).
(§8) Striatal cells were injured after 2, 3, 7 or 8 days in vitro. The injury paradigm involved 30 nM okadaic acid treatment with simultaneous administration of a GPE analog of this invention for 24 h. 1 μL of 3 μM okadaic acid stock solution together with 1 μL of GPE analog dissolved in PBS (vehicle received 2 μL of PBS) were incubated for 24 h with the striatal cells. Subsequently, 20 μL MTT (5 mg/mL in PBS) was added for 4 h. The reaction was terminated by addition of 100 μL 4% sodium dodecyl sulfate (SDS) solution. After 16-24 h incubation time, photometric extinction values are read at 595 nm. The difference between the vehicle and the okadaic acid injury condition was calculated. This value was set as the theoretical 100% recovery value. Measured values for the tested compounds were expressed in percentage of the 100% value. The unpaired Student's t-test was used for statistical analysis.

The subject of data set [1] is N-methyl-D-aspartate (NMDA) receptor. As to conditions: background statement; cited from earlier work.
A further data set concerns the target IGF-1 receptor (Homo sapiens, UniProt P08069). As to conditions: background statement; cited from earlier work.
The nature of data set [2]: Rat cortical dissociated cell culture, okadaic acid injury, MTT viability. As to conditions: Wistar, rat. How it is done:
as §1, §2, §3, §4, §5, §6

For the next data set, the system named is cerebellar cells. Description: Cerebellar microexplant culture, 3-NP/glutamate injury, count of cells with neurites. It counts as cell-based, Wistar rats. Particulars: toxin alone, cerebellar cell culture (FIG. 7). Here is the method: Postnatal day 3, 4 or 8 Wistar rats were used for the study. The rats were sacrificed and placed in ice for 1 minute, decapitated and the cerebellum removed and placed on ice. Cerebellum tissue was placed in 1 ml of 0.65% glucose-supplemented PBS (10 μl 65% stock D (+)glucose/1 ml PBS) in a large Petri dish, chopped up into smaller sections and triturated with a 1 ml insulin syringe via a 23 gauge (0.4 mm) needle, and then squirted back into the glucose solution in the Petri dish. The tissue was sieved through (125 µm pore size) and centrifuged (2 minutes at 60×g) twice to exchange the medium into serum-free BSA-supplemented START V medium (Biochrom, Germany). […]
After explants were exposed to a GPE analog of this invention for the study period, cells were then rinsed in PBS and then fixed in increasing concentrations of paraformaldehyde (500 μl of 0.4% PFA was applied; then 1.2% PFA; then 3% PFA and finally 4% PFA (each fixation step: 2-3 minutes). Finally, the microexplants were rinsed in PBS. Neurons in the explants were then evaluated for morphology (presence of neurites) and counted as live cells per microscopic field. Four fields displaying highest cell density were counted per cover slip and the data presented as mean ±standard error of the mean (SEM); n=4 each. Statistical significance was evaluated by using the non-paired Student's t-test.

A short description of data set [3]: Striatal cell culture, 30 nM okadaic acid injury, MTT viability. It counts as cell-based, Wistar rats. As to conditions: Wistar, rat; okadaic acid alone, other studies FIGS. 2-6 (striatal and cortical cultures); read-out: decrease in numbers of viable cells.
Text: as §7, §8

[4] abbreviates: 24 hrs, MTT, cortical cell culture (FIG. 1).

Where a SMILES comes first, the peptide text is derived from it. [ ]: non-standard residue; d: D form. ξ: configuration not given here. Hyp = O=C(O)[C@@H]1C[C@@H](O)CN1; Nva = CCC[C@H](N)C(=O)O; ξPip = O=C(O)C1CCCCN1; Aib = CC(C)(N)C(=O)O

Sequence of IGF-1 receptor (P08069 31-736 limits assumed): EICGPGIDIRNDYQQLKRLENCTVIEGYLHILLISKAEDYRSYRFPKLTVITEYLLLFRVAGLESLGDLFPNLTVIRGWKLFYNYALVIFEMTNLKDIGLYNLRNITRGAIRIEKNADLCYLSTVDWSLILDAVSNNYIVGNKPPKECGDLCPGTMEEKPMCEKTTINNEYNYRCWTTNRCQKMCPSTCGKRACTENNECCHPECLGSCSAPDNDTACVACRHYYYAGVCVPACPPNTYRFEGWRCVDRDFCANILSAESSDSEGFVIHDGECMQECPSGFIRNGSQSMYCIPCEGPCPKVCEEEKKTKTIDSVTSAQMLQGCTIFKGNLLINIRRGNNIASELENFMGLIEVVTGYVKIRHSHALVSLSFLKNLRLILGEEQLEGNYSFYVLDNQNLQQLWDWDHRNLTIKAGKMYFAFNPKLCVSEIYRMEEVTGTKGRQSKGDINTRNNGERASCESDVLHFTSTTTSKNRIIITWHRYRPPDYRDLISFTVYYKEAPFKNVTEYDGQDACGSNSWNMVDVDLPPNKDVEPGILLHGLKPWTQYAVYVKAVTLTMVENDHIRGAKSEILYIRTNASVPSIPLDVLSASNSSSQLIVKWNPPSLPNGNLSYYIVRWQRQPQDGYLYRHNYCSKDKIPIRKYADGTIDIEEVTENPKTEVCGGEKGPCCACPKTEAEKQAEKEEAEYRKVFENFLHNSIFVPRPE
Sequence of IGF-1 receptor (P08069 741-1367 partner limits assumed): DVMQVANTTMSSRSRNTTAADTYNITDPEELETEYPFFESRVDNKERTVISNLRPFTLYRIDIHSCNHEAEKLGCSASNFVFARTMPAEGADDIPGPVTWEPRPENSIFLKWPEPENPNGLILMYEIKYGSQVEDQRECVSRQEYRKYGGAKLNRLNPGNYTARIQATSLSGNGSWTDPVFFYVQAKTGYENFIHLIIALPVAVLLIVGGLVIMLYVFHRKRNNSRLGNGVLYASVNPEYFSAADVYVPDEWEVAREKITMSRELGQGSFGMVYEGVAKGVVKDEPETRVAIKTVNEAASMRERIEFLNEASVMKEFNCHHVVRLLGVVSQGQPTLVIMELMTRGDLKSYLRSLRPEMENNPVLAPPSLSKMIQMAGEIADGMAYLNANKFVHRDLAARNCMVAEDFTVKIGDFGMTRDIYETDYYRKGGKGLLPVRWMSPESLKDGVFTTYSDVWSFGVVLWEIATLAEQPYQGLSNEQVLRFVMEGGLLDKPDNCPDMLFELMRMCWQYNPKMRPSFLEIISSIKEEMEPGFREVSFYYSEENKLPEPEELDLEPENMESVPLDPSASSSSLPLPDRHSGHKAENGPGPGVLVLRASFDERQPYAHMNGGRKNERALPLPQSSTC

Take `CCC[C@H](NC(=O)[C@@H]1CCCN1C(=O)CN)C(=O)O` [analog 65, Glycyl-L-prolyl-L-Norvaline] (H-Gly-Pro-[Nva]-OH): the “protection against loss of cell viability induced by okadaic acid” value in the data set with cortical cell culture (at nearly every concentration tested (10 nM to 1 mM), cortical cell culture (FIG. 5)) is listed as 100%. In the data set with cortical cell culture (broad range of concentrations, 10 nM to 1 mM, cortical cell culture (FIG. 5)), the “neuroprotection against okadaic acid induced loss of cell viability” value is reported as “neuroprotective”.
For the molecule `CC(C)(N)C(=O)N1CCC[C@H]1C(=O)N[C@@H](CCC(=O)O)C(=O)O` [analog 64, Aminoisobutryl-L-prolyl-L-glutamic acid] (H-[Aib]-Pro-Glu-OH), the “protection from the loss of neural cell viability induced by okadaic acid” value in the data set on striatal cells (at 1 mM, 30 nM okadaic acid, striatal (FIG. 4)) is on record as “complete protection”. In the data set on striatal cells (concentration range 100 μM to 1 mM, 30 nM okadaic acid, striatal (FIG. 4)), the “neuroprotective efficacy compared with GPE” value is recorded as “more effective than GPE”. In addition, the “neuroprotection against okadaic acid induced loss of cell viability” value with striatal cells is “neuroprotective”.
`NCC(=O)N1CCC[C@H]1C(=O)N[C@@H](CCC(=O)O)C(=O)O` [GPE, Glycyl-L-Prolyl-L-Glutamate]: in the data set on cortical cell culture (setting [4]), the “neuroprotection against okadaic acid induced loss of cell viability” value is given as “reversed the okadaic acid induced loss of cell viability”. The “binding affinity to NMDA receptor” value in data set [1] is reported as “low affinity”. Besides, the “binding to IGF-1 receptor” value on IGF-1 receptor is on record as “does not bind”.
As to `C=C1[C@@H](O)[C@@H]2O[C@]3(CC[C@H](/C=C/[C@@H](C)[C@@H]4CC(C)=C[C@@]5(O[C@H](C[C@@](C)(O)C(=O)O)CC[C@H]5O)O4)O3)CC[C@H]2O[C@@H]1[C@@H](O)C[C@H](C)[C@H]1O[C@@]2(CCCCO2)CC[C@H]1C` [okadaic acid, reference compound], the cytotoxicity at 24 h in data set [2] is about 30%; in data set [3], 10 to 50%. In the data set with cerebellar cells, the “decrease in the number of cells having neurites” value is listed as “over 80%”.
With `NCC(=O)N1CCCCC1C(=O)N[C@@H](CCC(=O)O)C(=O)O` (stereo partly drawn) [analog 66, Glycyl-D,L-pipecolinyl-L-glutamic Acid] (H-Gly-[ξPip]-Glu-OH), in the data set with striatal cells (at concentrations of 100 nM, 100 mM and 1 mM, okadaic acid, striatal (FIG. 6)), the “statistical significance of neuroprotective effect” value is “statistically significant effects”. The “neuroprotection against okadaic acid induced loss of cell viability” value in the data set with striatal cells is given as “neuroprotective”.
`CC1(C)SCN(C(=O)CN)[C@@H]1C(=O)N[C@@H](CCC(=O)O)C(=O)O` [analog 49, Glycyl-L-thia-5,5-dimethylprolyl-L-glutamic acid]: the “neuroprotection against okadaic acid induced loss of cell viability” value in the data set on cortical cell culture (setting [4]) is on record as “neuroprotective”. In the data set with cortical cell culture (concentration range 10 nM to 10 μM, cortical cell culture (FIG. 1)), the “protection against loss of neural cell viability caused by okadaic acid” value turned out to be 100%.
On to `NCC(=O)N1C[C@H](O)C[C@H]1C(=O)N[C@@H](CCC(=O)O)C(=O)O` [analog 60, Glycyl-trans-4-hydroxy-L-prolyl-L-glutamic acid] (H-Gly-[Hyp]-Glu-OH), for which the “statistical significance of neuroprotective effect” value with striatal cells (at concentrations of 100 nM and 100 μM and 1 mM, 30 nM okadaic acid, striatal (FIG. 3)) is listed as “statistically significant effects”. The “neuroprotection against okadaic acid induced loss of cell viability” value in the data set on striatal cells is recorded as “neuroprorotective”.
